# Source: US10758549B2, “Compositions of obeticholic acid and methods of use” (Intercept Pharmaceuticals, Inc., priority 2015, dated 2020)
# Experiments:
# [1] = test system: CYP2B6, CYP2C8, CYP2D6, MRP2, MRP3, MRP4, MATE1, and OATP2B1; assay: In vitro studies: expression of metabolizing enzymes and transporters; type: in vitro ADME
# [2] = test system: subjects with primary biliary cirrhosis; assay: Example 8: OCA in combination with UDCA in subjects with primary biliary cirrhosis; type: in vivo, human
# Method: This example describes a study conducted using an international, multi-center, randomized, double-blind, placebo-controlled, multi-dose, parallel group to determine efficacy and safety of obeticholic acid (OCA) in combination with ursodeoxycholic acid (UDCA) in subjects with primary biliary cirrhosis.
# Key Exclusion criteria • Use of colchicine, methotrexate, azathioprine, or systemic corticosteroids • Screening conjugated (direct) bilirubin>2×ULN; ALT or AST>5×ULN; serum creatinine>1.5 mg/dL (133 μmol/L) • History or presence of hepatic decompensation (e.g., variceal bleeds, encephalopathy, or poorly controlled ascites) • History or presence of other concomitant liver diseases or human immunodeficiency virus (HIV) or other viral hepatitis infection • Clinically significant medical condition, and gastrointestinal conditions affecting drug ADME
# The percent change (%) in serum ALP from Baseline to End of Study (EOS) was tested where [EOS=Day 85 or last observed ALP value on treatment]
# Also observed were the absolute and percent changes in serum ALP levels from Baseline to Day 15, Day 29, Day 57, Day 85/ET and Follow-Up (Day 99). Patients were examined for the absolute and percent change in serum gamma-glutamyl transferase (GGT), alanine aminotransferase (ALT), and aspartate aminotransferase (AST) values from Baseline to Day 15, Day 29, Day 57, Day 85/ET and Follow-Up (Day 99). Patients were examined for absolute and percent changes in serum albumin and conjugated (direct) bilirubin values from Baseline to Day 15, Day 29, Day 57, Day 85/ET and Follow-Up (Day 99). Patients' Enhanced liver fibrosis (ELF) score and change in levels of its components, hyaluronic acid, aminoterminal peptide of pro-collagen III, and tissue inhibitor of matrix metalloproteinase-1 from Baseline to Day 85/ET were performed. The absolute and percent changes in levels of C-reactive protein, non-esterified fatty acid, tumor necrosis factor alpha, tumor necrosis factor beta, tumor growth factor beta, bile acids, glutathione, immunoglobulin M, and osteopontin from Baseline to Day 85/ET were taken.
# Overall, 165 subjects (100%) received at least 1 dose of investigational product (ITT and Safety Populations) and 136 subjects comprised the Completer Population. One hundred sixty-one subjects (98%) were included for the analysis of the mITT Population as measured by the percent change in ALP from Baseline to EOS; the mITT Population for sensitivity analysis of the primary endpoint included 163 subjects. It should be noted that the mITT population was defined for the primary analysis as all patients randomized who received at least one dose of study medication and had at least one post-baseline ALP evaluation which was taken at most seven days after their last dose of study medication. (See FIG. 10). The mITT Population for the sensitivity analysis included ALP assessments obtained up to 15 days after the last investigational product use (unlike 7 days for primary endpoint). The number of subjects was balanced across all groups in all analysis populations with the exception of the Completer Population due to the higher proportion of discontinuations with OCA 50 mg.
# [3] = OCA 10 mg + UDCA, Completer (n = 32)
# [4] = OCA 25 mg + UDCA, Completer (n = 42)
# [5] = OCA 50 mg + UDCA, Completer (n = 25)
structure (smiles),measurement,setting,value
"CC[C@H]1[C@@H](O)[C@@H]2[C@H](CC[C@]3(C)[C@@H]([C@H](C)CCC(=O)O)CC[C@@H]23)[C@@]2(C)CC[C@@H](O)C[C@@H]12 [OCA, 3α,7α-dihydroxy-6α-ethyl-5β-cholan-24-oic acid]","change in expression of CYP2B6, CYP2C8, CYP2D6, MRP2, MRP3, MRP4, MATE1, and OATP2B1",[1],did not cause a significant change
same,"ALP Mean Change, Baseline to Day 85/ET",[2]; [3],−86.3 U/L
same,"ALP Mean Percent Change, Baseline to Day 85/ET",[2]; [3],−26.7%
same,"ALP Median Change, Baseline to Day 85/ET",[2]; [3],−61.3 U/L
same,"ALP Median Percent Change, Baseline to Day 85/ET",[2]; [3],−23.5%
same,"ALP at Day 85/ET, Mean",[2]; [3],212.3 U/L
same,"ALP at Day 85/ET, Median",[2]; [3],175.0 U/L
same,"ALP Mean Change, Baseline to Day 85/ET","[2]; OCA 10 mg + UDCA, ITT (n = 38)",−75.4 U/L
same,"ALP Mean Percent Change, Baseline to Day 85/ET","[2]; OCA 10 mg + UDCA, ITT (n = 38)",−23.3%
same,"ALP Median Change, Baseline to Day 85/ET","[2]; OCA 10 mg + UDCA, ITT (n = 38)",−47.5 U/L
same,"ALP Median Percent Change, Baseline to Day 85/ET","[2]; OCA 10 mg + UDCA, ITT (n = 38)",−21.0%
same,"ALP at Day 85/ET, Mean","[2]; OCA 10 mg + UDCA, ITT (n = 38)",219.0 U/L
same,"ALP at Day 85/ET, Median","[2]; OCA 10 mg + UDCA, ITT (n = 38)",177.5 U/L
same,"ALP Mean Change, Baseline to Day 85/ET",[2]; [4],−76.0 U/L
same,"ALP Mean Percent Change, Baseline to Day 85/ET",[2]; [4],−26.6%
same,"ALP Median Change, Baseline to Day 85/ET",[2]; [4],−71.3 U/L
same,"ALP Median Percent Change, Baseline to Day 85/ET",[2]; [4],−28.2%
same,"ALP at Day 85/ET, Mean",[2]; [4],199.0 U/L
same,"ALP at Day 85/ET, Median",[2]; [4],187.5 U/L
same,"ALP Mean Change, Baseline to Day 85/ET","[2]; OCA 25 mg + UDCA, ITT (n = 48)",−65.0 U/L
same,"ALP Mean Percent Change, Baseline to Day 85/ET","[2]; OCA 25 mg + UDCA, ITT (n = 48)",−24.0%
same,"ALP Median Change, Baseline to Day 85/ET","[2]; OCA 25 mg + UDCA, ITT (n = 48)",−69.3 U/L
same,"ALP Median Percent Change, Baseline to Day 85/ET","[2]; OCA 25 mg + UDCA, ITT (n = 48)",−27.8%
same,"ALP at Day 85/ET, Mean","[2]; OCA 25 mg + UDCA, ITT (n = 48)",225.0 U/L
same,"ALP at Day 85/ET, Median","[2]; OCA 25 mg + UDCA, ITT (n = 48)",187.5 U/L
same,"ALP Mean Change, Baseline to Day 85/ET",[2]; [5],−101.8 U/L
same,"ALP Mean Percent Change, Baseline to Day 85/ET",[2]; [5],−32.5%
same,"ALP Median Change, Baseline to Day 85/ET",[2]; [5],−76.0 U/L
same,"ALP Median Percent Change, Baseline to Day 85/ET",[2]; [5],−33.9%
same,"ALP at Day 85/ET, Mean",[2]; [5],179.1 U/L
same,"ALP at Day 85/ET, Median",[2]; [5],158.5 U/L
same,"ALP Mean Change, Baseline to Day 85/ET","[2]; OCA 50 mg + UDCA, ITT (n = 41)",−62.9 U/L
same,"ALP Mean Percent Change, Baseline to Day 85/ET","[2]; OCA 50 mg + UDCA, ITT (n = 41)",−20.0%
same,"ALP Median Change, Baseline to Day 85/ET","[2]; OCA 50 mg + UDCA, ITT (n = 41)",−56.5 U/L
same,"ALP Median Percent Change, Baseline to Day 85/ET","[2]; OCA 50 mg + UDCA, ITT (n = 41)",−22.7%
same,"ALP at Day 85/ET, Mean","[2]; OCA 50 mg + UDCA, ITT (n = 41)",227.9 U/L
same,"ALP at Day 85/ET, Median","[2]; OCA 50 mg + UDCA, ITT (n = 41)",197.0 U/L
